Source: patent US20220362577A1, “METHODS FOR GUIDING DIRECT DELIVERY OF DRUGS AND/OR ENERGY TO LESIONS USING COMPUTATIONAL MODELING” (University of Vermont and State Agricultural College, priority 2019, published 2022)

What was measured:
[1] = Cisplatin blood concentration versus time after EBUS-TBNI into a patient's lung tumor, fitted with Eq. 14; format: in vivo, human; conditions: fit of Eq. 14 to blood concentrations after five 8-mg intratumoral injections
Description: Combining Eqs. 2 and 12 gives:
The fitting was achieved by optimizing the values of the two free parameters (kf+ki) and Vf using a gradient-based algorithm to minimize the cost function: […]
Ultrasound guidance was used to attempt to distribute the 5 injections evenly throughout the tumor over an interval of 18 min.

[2] = test system: mitochondrial respiration; conditions: cisplatin-treated cells; cited from earlier work
[3] = test system: head, neck and gastric carcinomas; conditions: assumed the same for lung carcinomas; cited from earlier work

## N.N.[Cl][Pt][Cl] [cisplatin]
[1]
  ki+kf, sum of rate constants out of the extracellular space: 0.000251 s⁻¹
[2]
  concentration above which stepwise decrements in mitochondrial respiration were seen: above 5.0 uM
[3]
  ki, rate constant of flow into the intracellular space: 0.000105 s⁻¹
